The test system of one experiment is BJ. The experiment in a line: cells. The experiment is classed as functional, cell-based. To be noted: Homo sapiens.
Experiment [1] can be described thus: HIV-1 Vif–A3G interaction blockers – biochemical, TR-FRET, GST-Vif 1-94, biotin-A3G peptide, dose response retest, primary screen (AID 1117319).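 Further: TR-FRET signal of purified GST-Vif binding a biotinylated A3G peptide; inhibitors lower the FRET signal by blocking Vif and A3G binding.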 The experiment is classed as functional. A general note: TR-FRET usually uses a lanthanide donor and a delayed reading to cut background.
In the next experiment the target is Cytochrome P450 3A4 (Homo sapiens, UniProt P08684).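 Further: CYP3A4 tested as one member of a cytochrome P450 panel screen.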
Chain of Cytochrome P450 3A4 (P08684 whole entry): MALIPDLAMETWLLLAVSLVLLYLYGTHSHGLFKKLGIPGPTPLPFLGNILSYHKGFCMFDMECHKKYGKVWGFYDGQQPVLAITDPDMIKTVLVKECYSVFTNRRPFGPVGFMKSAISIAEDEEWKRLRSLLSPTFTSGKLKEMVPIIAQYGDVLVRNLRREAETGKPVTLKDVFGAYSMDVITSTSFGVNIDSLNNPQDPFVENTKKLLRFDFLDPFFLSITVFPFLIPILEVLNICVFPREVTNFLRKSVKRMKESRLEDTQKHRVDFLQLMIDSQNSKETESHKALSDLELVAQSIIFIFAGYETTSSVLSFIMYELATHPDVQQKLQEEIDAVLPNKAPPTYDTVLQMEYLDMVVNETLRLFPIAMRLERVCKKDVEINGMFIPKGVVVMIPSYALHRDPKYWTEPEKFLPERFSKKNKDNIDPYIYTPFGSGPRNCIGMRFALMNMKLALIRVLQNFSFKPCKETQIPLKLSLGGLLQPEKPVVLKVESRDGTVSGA
In another experiment the target is T1, Hexokinase HKDC1 (Homo sapiens, UniProt Q2TB90).
T1 sequence (Q2TB90 whole entry): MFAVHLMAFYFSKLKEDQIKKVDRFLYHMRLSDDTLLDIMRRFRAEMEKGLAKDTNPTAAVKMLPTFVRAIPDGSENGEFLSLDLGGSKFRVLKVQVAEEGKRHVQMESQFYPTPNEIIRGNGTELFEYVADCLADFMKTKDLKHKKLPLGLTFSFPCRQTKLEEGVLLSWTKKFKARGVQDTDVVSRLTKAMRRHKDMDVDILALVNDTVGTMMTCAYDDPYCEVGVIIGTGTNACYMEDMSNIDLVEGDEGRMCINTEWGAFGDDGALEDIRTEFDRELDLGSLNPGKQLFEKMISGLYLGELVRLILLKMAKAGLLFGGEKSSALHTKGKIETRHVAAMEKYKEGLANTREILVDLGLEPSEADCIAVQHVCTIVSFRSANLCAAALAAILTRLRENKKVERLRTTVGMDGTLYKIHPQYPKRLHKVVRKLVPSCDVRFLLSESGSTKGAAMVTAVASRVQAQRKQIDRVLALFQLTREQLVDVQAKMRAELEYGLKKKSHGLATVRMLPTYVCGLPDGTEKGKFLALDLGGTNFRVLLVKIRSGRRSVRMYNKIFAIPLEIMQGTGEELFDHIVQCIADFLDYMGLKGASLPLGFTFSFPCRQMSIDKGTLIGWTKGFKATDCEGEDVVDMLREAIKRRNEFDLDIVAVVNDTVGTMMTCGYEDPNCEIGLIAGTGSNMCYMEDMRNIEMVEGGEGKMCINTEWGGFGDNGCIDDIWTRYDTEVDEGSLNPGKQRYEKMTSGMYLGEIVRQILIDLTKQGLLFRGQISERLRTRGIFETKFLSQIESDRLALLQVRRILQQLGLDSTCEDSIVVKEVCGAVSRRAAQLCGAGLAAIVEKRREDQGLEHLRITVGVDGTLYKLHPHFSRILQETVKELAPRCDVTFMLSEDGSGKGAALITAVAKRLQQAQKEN
Nature of the experiment: SAR analysis of small molecule inhibitors of hexokinase domain containing I (HKDC1). [Related pubchem assays (depositor defined):AID493160, AID493190]. It is filed as functional.

Experiment [2] can be described thus: Luminescence Cell-Based Dose Response HTS to Identify Inhibitors of 5'UTR Stem-Loop Driven Prion Protein mRNA Translation in H4 Neuroglioblastoma Cells. [Related pubchem assays: 1827 (Project Summary), 1813 (Primary HTS)]. The experiment is classed as functional.
Experiment [3] concerns the target Heat shock protein HSP 90-alpha (Homo sapiens, UniProt P07900). The experiment in a line: Luminescence-based dose response biochemical high throughput screening assay for inhibitors of the Heat Shock Protein 90 (HSP90). [Related pubchem assays: 1831 (Summary AID.), 1846 (Confirmation screen.), 1789 (Primary screen.)].
A short description of experiment [4]: mitochondrial function rescue without frataxin homolog – Friedreich's ataxia, plus single-dose screen, dose response (AID 1465).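 Further: yeast depleted of Yfh1p frataxin homolog grown on glycerol needing respiration; WST-1 tetrazolium dye reduction as measure of cellular dehydrogenase metabolic activity.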 The experiment is classed as functional.
Experiment [5] addresses 1-phosphatidylinositol 4,5-bisphosphate phosphodiesterase gamma-1 (Homo sapiens, UniProt P19174). Nature of the experiment: Counterscreen for inhibitors of phospholipase C isozymes (PLC-B3): Fluorescence-based biochemical high throughput dose response assay to identify inhibitors of phospholipase C isozymes (PLC-gamma1). On the technique in general: A counterscreen serves to expose hits that act by an unwanted route or on another target.

The target of experiment [6] is 1-phosphatidylinositol 4,5-bisphosphate phosphodiesterase beta-3 (Homo sapiens, UniProt Q01970). The experiment in a line: Fluorescence-based biochemical high throughput dose response assay to identify inhibitors of phospholipase C isozymes (PLC-B3).
Chain of 1-phosphatidylinositol 4,5-bisphosphate phosphodiesterase beta-3 (Q01970 whole entry): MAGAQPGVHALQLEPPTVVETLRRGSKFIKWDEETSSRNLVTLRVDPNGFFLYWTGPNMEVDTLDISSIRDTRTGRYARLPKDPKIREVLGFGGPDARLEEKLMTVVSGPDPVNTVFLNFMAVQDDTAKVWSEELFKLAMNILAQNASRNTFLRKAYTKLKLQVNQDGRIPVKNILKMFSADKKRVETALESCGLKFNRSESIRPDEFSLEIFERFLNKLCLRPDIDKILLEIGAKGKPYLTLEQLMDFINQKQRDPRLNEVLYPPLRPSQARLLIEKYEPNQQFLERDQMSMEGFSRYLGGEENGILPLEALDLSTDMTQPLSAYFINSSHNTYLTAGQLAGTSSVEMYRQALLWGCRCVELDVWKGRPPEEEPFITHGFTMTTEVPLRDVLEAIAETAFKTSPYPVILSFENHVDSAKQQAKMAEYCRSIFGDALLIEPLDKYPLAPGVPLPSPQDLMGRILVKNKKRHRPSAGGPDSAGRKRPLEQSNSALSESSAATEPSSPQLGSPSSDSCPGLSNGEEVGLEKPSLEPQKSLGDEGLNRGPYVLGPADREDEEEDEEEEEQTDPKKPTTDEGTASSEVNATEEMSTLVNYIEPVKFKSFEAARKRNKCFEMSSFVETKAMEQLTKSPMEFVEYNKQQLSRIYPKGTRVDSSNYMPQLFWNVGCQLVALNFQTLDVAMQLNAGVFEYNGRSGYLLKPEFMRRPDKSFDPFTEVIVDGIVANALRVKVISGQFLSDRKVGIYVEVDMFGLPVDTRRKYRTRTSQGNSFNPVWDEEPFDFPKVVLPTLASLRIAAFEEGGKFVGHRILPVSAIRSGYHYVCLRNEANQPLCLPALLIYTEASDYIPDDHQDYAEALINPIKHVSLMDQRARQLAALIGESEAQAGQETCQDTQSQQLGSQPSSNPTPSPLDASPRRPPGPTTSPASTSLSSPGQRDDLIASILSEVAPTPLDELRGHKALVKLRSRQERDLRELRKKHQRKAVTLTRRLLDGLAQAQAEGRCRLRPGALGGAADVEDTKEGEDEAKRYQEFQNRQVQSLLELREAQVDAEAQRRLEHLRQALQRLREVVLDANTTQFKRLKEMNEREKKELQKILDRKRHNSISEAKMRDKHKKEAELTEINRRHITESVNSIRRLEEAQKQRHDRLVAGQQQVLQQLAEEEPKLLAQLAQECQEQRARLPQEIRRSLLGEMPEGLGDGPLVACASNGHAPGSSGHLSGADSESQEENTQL
The target of experiment [7] is T2, Sentrin-specific protease 8 (Homo sapiens, UniProt Q96LD8).
T2 sequence (Q96LD8 whole entry): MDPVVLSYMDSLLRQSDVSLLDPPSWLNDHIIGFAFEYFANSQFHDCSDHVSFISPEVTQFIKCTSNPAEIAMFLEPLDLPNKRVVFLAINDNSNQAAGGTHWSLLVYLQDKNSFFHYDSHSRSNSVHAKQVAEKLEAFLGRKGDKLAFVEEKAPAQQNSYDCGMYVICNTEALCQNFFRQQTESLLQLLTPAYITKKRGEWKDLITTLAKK
The experiment is classed as functional.

The target of the next experiment is T3, Caspase-3 (Homo sapiens, UniProt P42574).
T3 sequence (P42574 whole entry): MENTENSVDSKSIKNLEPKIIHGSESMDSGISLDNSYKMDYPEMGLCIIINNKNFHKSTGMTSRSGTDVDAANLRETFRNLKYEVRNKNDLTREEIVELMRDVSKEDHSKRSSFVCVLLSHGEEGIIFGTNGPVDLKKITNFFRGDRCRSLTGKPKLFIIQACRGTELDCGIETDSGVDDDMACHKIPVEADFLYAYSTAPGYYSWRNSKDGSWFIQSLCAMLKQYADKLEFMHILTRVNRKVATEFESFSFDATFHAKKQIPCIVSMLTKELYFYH
The experiment in a line: Dose-response confirmation of uHTS inhibitor hits of Sentrin-Specific Protease 8 in a Caspase-3 Fluorescence assay. The experiment is classed as functional.

Experiment [8] concerns the target Intestinal-type alkaline phosphatase (Homo sapiens, UniProt P09923). The experiment in a line: activation of human intestinal alkaline phosphatase – biochemical, dose response (AID 488873). The experiment is classed as functional.
Experiment [9] concerns the target T4, Alkaline phosphatase, tissue-nonspecific isozyme (Homo sapiens, UniProt P05186).
T4 sequence (P05186 whole entry): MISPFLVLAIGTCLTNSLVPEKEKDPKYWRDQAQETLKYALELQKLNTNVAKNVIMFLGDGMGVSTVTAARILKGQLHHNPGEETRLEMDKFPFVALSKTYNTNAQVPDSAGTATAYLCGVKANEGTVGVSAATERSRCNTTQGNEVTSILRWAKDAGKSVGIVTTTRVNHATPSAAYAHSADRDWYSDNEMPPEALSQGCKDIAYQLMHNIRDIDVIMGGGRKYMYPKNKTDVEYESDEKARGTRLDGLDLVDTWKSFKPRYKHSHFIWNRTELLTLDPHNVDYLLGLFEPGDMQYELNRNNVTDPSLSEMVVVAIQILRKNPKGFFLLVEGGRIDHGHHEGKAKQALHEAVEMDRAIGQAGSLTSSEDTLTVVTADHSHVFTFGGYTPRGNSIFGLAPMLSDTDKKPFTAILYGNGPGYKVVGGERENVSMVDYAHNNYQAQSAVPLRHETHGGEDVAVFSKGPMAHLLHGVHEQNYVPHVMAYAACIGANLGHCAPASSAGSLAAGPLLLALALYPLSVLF
The experiment in a line: activation of tissue-nonspecific alkaline phosphatase – biochemical, TNAP isozyme, mouse IAP uHTS hits, selectivity assay for mouse IAP activator project, dose response (AID 488880). The experiment is classed as functional.

The source made the active and inactive calls.

Our source for the EC50, IC50 and AC50 values is ChEMBL document CHEMBL1201862, “PubChem BioAssay data set” (2004).

Chain of 1-phosphatidylinositol 4,5-bisphosphate phosphodiesterase gamma-1 (P19174 whole entry): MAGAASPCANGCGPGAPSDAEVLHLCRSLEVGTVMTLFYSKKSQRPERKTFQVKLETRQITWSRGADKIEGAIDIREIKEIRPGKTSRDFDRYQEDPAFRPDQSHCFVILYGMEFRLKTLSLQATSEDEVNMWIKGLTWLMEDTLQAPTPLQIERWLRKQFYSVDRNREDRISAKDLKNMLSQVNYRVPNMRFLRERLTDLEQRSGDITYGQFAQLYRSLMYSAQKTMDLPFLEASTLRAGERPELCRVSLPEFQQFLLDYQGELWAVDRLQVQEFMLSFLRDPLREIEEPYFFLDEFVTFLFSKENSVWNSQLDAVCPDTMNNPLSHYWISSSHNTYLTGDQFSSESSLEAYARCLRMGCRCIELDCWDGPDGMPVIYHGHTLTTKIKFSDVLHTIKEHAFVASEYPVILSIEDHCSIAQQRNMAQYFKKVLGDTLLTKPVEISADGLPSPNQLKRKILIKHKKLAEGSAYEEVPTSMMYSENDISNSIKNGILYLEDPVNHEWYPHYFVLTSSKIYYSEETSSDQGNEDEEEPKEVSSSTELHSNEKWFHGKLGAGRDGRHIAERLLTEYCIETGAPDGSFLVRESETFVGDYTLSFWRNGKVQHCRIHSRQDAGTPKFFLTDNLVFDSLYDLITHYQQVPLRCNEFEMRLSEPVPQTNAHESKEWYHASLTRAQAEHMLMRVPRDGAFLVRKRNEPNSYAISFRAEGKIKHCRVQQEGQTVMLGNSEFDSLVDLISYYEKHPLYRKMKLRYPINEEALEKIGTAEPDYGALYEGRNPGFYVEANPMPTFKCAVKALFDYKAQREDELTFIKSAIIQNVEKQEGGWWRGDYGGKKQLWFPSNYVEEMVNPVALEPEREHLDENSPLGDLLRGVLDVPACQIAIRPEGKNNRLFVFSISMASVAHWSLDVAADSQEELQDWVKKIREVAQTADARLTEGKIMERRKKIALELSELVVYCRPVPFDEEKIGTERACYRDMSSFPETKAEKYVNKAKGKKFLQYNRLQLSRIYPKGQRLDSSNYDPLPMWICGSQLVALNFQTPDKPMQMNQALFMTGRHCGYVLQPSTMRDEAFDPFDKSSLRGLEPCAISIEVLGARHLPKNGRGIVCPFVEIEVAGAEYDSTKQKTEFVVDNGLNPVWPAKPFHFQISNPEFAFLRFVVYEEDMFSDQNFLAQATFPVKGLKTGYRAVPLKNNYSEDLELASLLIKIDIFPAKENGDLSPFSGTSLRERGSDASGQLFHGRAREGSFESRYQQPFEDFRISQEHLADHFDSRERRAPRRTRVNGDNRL
Chain of Intestinal-type alkaline phosphatase (P09923 whole entry): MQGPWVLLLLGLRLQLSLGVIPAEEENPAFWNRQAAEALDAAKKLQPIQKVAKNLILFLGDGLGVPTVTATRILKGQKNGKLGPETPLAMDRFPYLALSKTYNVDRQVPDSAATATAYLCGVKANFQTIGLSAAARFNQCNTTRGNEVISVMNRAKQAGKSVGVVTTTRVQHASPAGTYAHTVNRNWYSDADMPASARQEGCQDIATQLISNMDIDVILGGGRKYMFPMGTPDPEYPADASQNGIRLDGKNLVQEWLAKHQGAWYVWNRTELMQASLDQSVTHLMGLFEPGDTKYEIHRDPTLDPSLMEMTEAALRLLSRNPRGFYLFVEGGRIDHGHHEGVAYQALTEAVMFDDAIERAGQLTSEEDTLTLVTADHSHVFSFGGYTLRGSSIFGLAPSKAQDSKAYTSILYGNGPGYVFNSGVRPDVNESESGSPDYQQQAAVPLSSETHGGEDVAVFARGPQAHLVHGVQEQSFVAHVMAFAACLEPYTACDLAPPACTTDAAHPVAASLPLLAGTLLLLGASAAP

Consider `O=C(/C=C/c1ccco1)Nc1ccc(Oc2ccccc2)cc1`, for which the EC50 in the experiment with BJ is 21.2 µM (active). Moreover, the IC50 in experiment [1] is > 100 µM (active). For the same compound, the AC50 on Cytochrome P450 3A4 was 39.8 µM (inconclusive).

For `COc1ccc(S(=O)(=O)Nc2cc(SCC(=O)O)c(O)c3ccccc23)cc1`, the half-maximal inhibitory concentration (IC50) at Hexokinase HKDC1 was 10.5 µM (active).

For `O=C1C(Nc2ccc(O)cc2)=C/C(=N/S(=O)(=O)c2cccs2)c2ccccc21`, the EC50 in [2] is 0.236 µM (active); in experiment [4], > 100 µM (active). The results for the IC50 in experiment [3], in [5] and in experiment [6] were 0.656 µM (active), 29.3 µM (inactive) and > 40.8 µM (inactive), respectively.

In the case of `COC(=O)C(O)(c1c(C)[nH]n(-c2ccccc2)c1=O)C(F)(F)F` (stereo not drawn), the IC50 in [7] is 2.43 µM (active); at Caspase-3 it was 68.9 µM (inactive).

`CC1CC(=O)c2c(cc3c(-c4c(O)cc(O)c5c(O)c6c(cc45)OC(C)CC6=O)c(O)cc(O)c3c2O)O1` (stereo not drawn) [CEPHALOCHROMIN]: the EC50 in experiment [8] was 21.7 µM (active); in experiment [9], 26.7 µM (active).

A word on the EC50: it is the concentration that produces a half-maximal response. One may read the IC50 as the concentration that gives 50% inhibition. One may read the AC50 as the concentration at which the activity in the assay is half-maximal.
